# Experimental data published in patent US7446225B2, “Pentafluorosulfanylphenyl-substituted benzoylguanidines, method for the production thereof, their use as a medicament or diagnostic agent, and a medicament containing these compounds” (Sanofi-aventis Deutschland GmbH, priority 2004, dated 2008).
# Molecular target: T1, human NHE-1 (Homo sapiens, UniProt P19634)
# T1 construct: expressed in transfected cells; host or cells: LAP-1 (NHE-deficient parental cell line), stably transfected, G418 selection
# Assay: FLIPR assay of pHi recovery for NHE-1 inhibition
# Type: cell-based
# Settings: transfected LAP-1 cell line expressing human NHE-1, BCECF pHi recovery, read-out: NHE1 inhibition IC50
# Protocol: The inhibitory concentration IC50 for NHE-1 inhibition was determined as follows:
# IC50 for NHE-1 inhibition were determined in a FLIPR assay by measurement of the recovery in pHi in transfected cell lines which express human NHE-1.
# The assay was carried out in an FLIPR (fluorescent imaging plate reader) with black-walled 96-well microtiter plates with clear bases.
# The growth medium for the transfected cells (Iscove+10% fetal calf serum) additionally contained G418 as selection antibiotic in order to ensure the presence of the transfected sequences.
# The actual assay started with the removal of the growth medium and addition of 100 μl of loading buffer per well (5 μM BCECF-AM [2′,7′-bis(carboxyethyl)-5-(and -6-)carboxyfluorescein, acetoxymethyl ester] in 20 mM NH4Cl, 115 mM choline chloride, 1 mM MgCl2, 1 mM CaCl2, 5 mM KCl, 20 mM HEPES, 5 mM glucose; pH 7.4 [adjusted with KOH]). The cells were then incubated at 37° C. for 20 minutes. This incubation led to loading of the cells with the fluorescent dye whose fluorescence intensity depends on pHi, and with NH4Cl which makes the cells slightly alkaline. The nonfluorescent dye precursor BCECF-AM is, as ester, membrane-permeable. The actual dye BCECF is not membrane-permeable but is liberated inside cells by esterases. […]
# T1 sequence (P19634 whole entry): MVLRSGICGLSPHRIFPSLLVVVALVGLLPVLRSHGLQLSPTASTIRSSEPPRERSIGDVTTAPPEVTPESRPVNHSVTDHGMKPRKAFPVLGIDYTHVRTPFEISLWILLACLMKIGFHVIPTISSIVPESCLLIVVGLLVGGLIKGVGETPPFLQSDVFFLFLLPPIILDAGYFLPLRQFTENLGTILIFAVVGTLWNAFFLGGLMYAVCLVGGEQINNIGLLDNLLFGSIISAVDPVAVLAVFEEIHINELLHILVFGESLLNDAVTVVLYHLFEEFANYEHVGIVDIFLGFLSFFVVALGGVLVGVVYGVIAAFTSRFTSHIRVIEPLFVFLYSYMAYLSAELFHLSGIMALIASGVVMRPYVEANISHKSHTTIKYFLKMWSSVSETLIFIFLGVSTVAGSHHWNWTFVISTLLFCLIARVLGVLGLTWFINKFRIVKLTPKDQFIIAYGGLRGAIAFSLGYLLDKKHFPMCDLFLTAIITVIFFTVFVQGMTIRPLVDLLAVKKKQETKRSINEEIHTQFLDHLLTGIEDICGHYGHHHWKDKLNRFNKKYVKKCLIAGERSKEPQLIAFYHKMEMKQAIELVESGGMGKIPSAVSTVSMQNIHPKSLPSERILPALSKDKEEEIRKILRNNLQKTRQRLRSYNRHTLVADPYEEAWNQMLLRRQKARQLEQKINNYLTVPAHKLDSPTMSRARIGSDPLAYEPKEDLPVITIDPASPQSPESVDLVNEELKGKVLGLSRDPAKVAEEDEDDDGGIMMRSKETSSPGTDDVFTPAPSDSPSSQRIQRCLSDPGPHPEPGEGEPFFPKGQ
smiles,measurement,value
"Cc1cc(Oc2ccc(S(C)(=O)=O)c(S(F)(F)(F)(F)F)c2)c(S(C)(=O)=O)cc1C(=O)N=C(N)N [Example 1, N-[5-methanesulfonyl-4-(4-methanesulfonyl-3-pentafluorosulfanyl-phenoxy)-2-methylbenzoyl]guanidine]",IC50,33 nM
